# Tests used:
# UM-UC-3 xenograft tumors = assay: UM-UC-3 established mouse xenograft; format: in vivo
# Description: (§1) Male and female Nu/Nu mice were purchased from Harlan Sprague Dawley (Indianapolis, Ind.). Female Nu/Nu mice were used for all xenograft evaluations with the exception of the PC-3 xenografts where male Nu/Nu mice were used. Cell lines were expanded in vitro in complete media, and if adherent were harvested by trypsin-EDTA, centrifuged and resuspended in PBS 1:1 with Matrigel (BD Bioscienes). Cells were inoculated subcutaneously in the right hind flank of mice. […] Tumor volumes and body weights were determined twice a week, and tumor weights were measured at the completion of the translational xenograft studies.
# PC-3 cells = assay: Colony formation assay, PC-3; format: cell-based
# Experimental: (§2) For shRNA growth experiments, 500 UM-UC-3 cells were seeded in a 12-well plate 48 hours post-transduction and cultured for 8-10 days at 37° C. in 5% CO2. Cells were fixed with 4% paraformaldehyde in PBS, washed twice with PBS, and stained with a crystal violet solution (1% crystal violet, 10% ethanol in water). Stained cells were washed thrice with water, and imaged after drying on a GelCount colony counter (Oxford Optronix Ltd., Oxford, UK). Total staining intensity per well was determined by lysis of cells with 200 μl of Triton X-100 lysis buffer (1% Triton X-100, 50 mM Tris-HCl pH 7.4, 150 mM NaCl, 1 mM EDTA). Lysates (100 μl) from each well were transferred to a clear 96-well plate and absorbance at 560 nm was determined on an Envision microplate reader. IC50 values were determined using GraphPad Prism software. For compound treated PC-3 and UM-UC-3, cells were seeded and stained as above, but were incubated with various concentrations of test compound or DMSO one day after seeding.
# (§3) Translational models were also explored for PIM dependency using shRNA knockdown. The UM-UC-3 urinary epithelial bladder carcinoma cell line was used to verify and validate dependency on PIM-1 for growth. […] Reduction of PIM-1 mRNA and growth also were observed using both PIM-1 and PIM-2 shRNA in the androgen-independent prostate carcinoma cell line PC-3 (data not shown).
# 22RV1/PIM-1 xenografts = assay: 22RV1/PIM-1 over-expression tumor xenograft; format: in vivo, mouse
# Description: (§4) Male and female Nu/Nu mice were purchased from Harlan Sprague Dawley (Indianapolis, Ind.). Female Nu/Nu mice were used for all xenograft evaluations with the exception of the PC-3 xenografts where male Nu/Nu mice were used. Cell lines were expanded in vitro in complete media, and if adherent were harvested by trypsin-EDTA, centrifuged and resuspended in PBS 1:1 with Matrigel (BD Bioscienes). Cells were inoculated subcutaneously in the right hind flank of mice. When tumors reached 100-200 mm^3 by caliper measurement, mice were randomized and dosing of SGI-9481 or vehicle control began and continued every day for 5 days (QD×5) with 2 days off for 18-21 days. Tumor volumes and body weights were determined twice a week, and tumor weights were measured at the completion of the translational xenograft studies.
# (§5) The prostate cancer cell line 22RV1 engineered to over-express PIM-1 as previously described (Mumenthaler, et al, Mol. Cancer Ther., 2009, 8(10)2882-93) was evaluated in vivo. A second model engineered to over-express PIM-2 was established using the NIH-3T3 mouse fibroblast cell line.
# MV-4-11 (FLT3-ITD) = assay: MV-4-11 mouse xenograft; format: in vivo
# Description: as §4
# NIH-3T3/PIM-2 xenografts = assay: NIH-3T3/PIM-2 over-expression tumor xenograft; format: in vivo, mouse
# Description: as §4, §5
# UM-UC-3 cells = assay: Colony formation assay, UM-UC-3; format: cell-based
# Experimental: as §2, §3
# [1] = system: ML-2 cells (wild-type FLT3); assay: ML-2 mouse xenograft; format: in vivo; conditions: ML-2, wild-type FLT3
# Description: as §4
# [2] = system: phosphatidyl inositol-3-kinase (PI3K) family; assay: Selectivity study, PI3K family; format: biochemical; conditions: multiple members
# PC-3 xenograft tumors = assay: PC-3 established mouse xenograft; format: in vivo
# Description: as §1
structure (smiles),measurement,setting,value
CC(C)(O)[C@H]1CC[C@H](Nc2ccc3ncc(-c4cccc(C(F)(F)F)c4)n3n2)CC1 [Compound 8-31],tumor growth inhibition,UM-UC-3 xenograft tumors; 125 mg/kg,significant tumor growth inhibition
same,body weight and gross toxicity,UM-UC-3 xenograft tumors; oral 200 mg/kg,no significant changes in body weight or gross adverse toxicity
same,tumor growth by volume and final tumor weight,UM-UC-3 xenograft tumors; oral 200 mg/kg,significantly reduced
same,colony growth,PC-3 cells,reduced colony growth
same,subcutaneous tumor growth,22RV1/PIM-1 xenografts; 22RV1/PIM-1 + compound vs vehicle,significantly reduced
same,body weight change,22RV1/PIM-1 xenografts; 22RV1 xenograft mice,No significant changes in body weight
same,effect on established xenografts,MV-4-11 (FLT3-ITD),induced regressions
same,subcutaneous tumor growth,NIH-3T3/PIM-2 xenografts; NIH-3T3/PIM-2 + compound vs vehicle,significantly inhibited
same,body weight change,NIH-3T3/PIM-2 xenografts; NIH-3T3 xenograft mice,No significant changes in body weight
same,colony growth,UM-UC-3 cells,reduced colony growth
same,tumor growth inhibition,[1],significant tumor growth inhibition
same,activity against PI3K family members,[2],inhibitory activity
same,tumor growth inhibition,PC-3 xenograft tumors; 125 mg/kg,significant tumor growth inhibition
same,body weight and gross toxicity,PC-3 xenograft tumors; oral 200 mg/kg,no significant changes in body weight or gross adverse toxicity
same,tumor growth by volume and final tumor weight,PC-3 xenograft tumors; oral 200 mg/kg,significantly reduced
